# Values of other authors as cited in patent publication US20080015265A1, “Methods of treating obesity using satiety factors” (priority 2006, published 2008).
# Where two headings read alike, the source gives them in different places. Where no end group is shown, it is not given here.
# B1: apolipoprotein A-IV (protein, UniProt P06727 21-396, looked up)
# Apolipoprotein A-IV: EVSADQVATVMWDYFSQLSNNAKEAVEHLQKSELTQQLNALFQDKLGEVNTYAGDLQKKLVPFATELHERLAKDSEKLKEEIGKELEELRARLLPHANEVSQKIGDNLRELQQRLEPYADQLRTQVSTQAEQLRRQLTPYAQRMERVLRENADSLQASLRPHADELKAKIDQNVEELKGRLTPYADEFKVKIDQTVEELRRSLAPYAQDTQEKLNHQLEGLTFQMKKNAEELKARISASAEELRQRLAPLAEDVRGNLRGNTEGLQKSLAELGGHLDQQVEEFRRRVEPYGENFNKALVQQMEQLRQKLGPHAGDVEGHLSFLEKDLRDKVNSFFSTFKEKESQDKTLSLPELEQQQEQQQEQQQEQVQMLAPLES
# notes: non-gut peptide satiety factor
# B2: cholecystokinin (peptide, UniProt P06307 21-115, looked up)
# Cholecystokinin: QPVPPADPAGSGLQRAEEAPRRQLRVSQRTDGESRAHLGALLARYIQQARKAPSGRMSIVKNLQNLDPSHRISDRDYMGWMDFGRRSAEEYEYPS
# notes: gut peptide released mainly in response to dietary fat
# B3: nesfatin (protein, UniProt P80303 25-106, looked up)
# Nesfatin-1: VPIDIDKTKVQNIHPVESAKIEPPDTGLYYDEYLKQVIDVLETDKHFREKLQKADIEEIKSGRLSKELDLVSHHVRTKLDEL
# modifications: Nesfatin-1
# notes: produced by the brain
# B4: ciliary neurotrophic factor (protein, UniProt P26441 1-200, looked up)
# Ciliary neurotrophic factor: MAFTEHSPLTPHRRDLCSRSIWLARKIRSDLTALTESYVKHQGLNKNINLDSADGMPVASTDQWSELTEAERLQENLQAYRTFHVLLARLLEDQQVHFTPTEGDFHQAIHTLLLQVAAFAYQIEELMILLEYKIPRNEADGMPINVGDGGLFEKKLWGLKVLQELSQWTVRSIHDLRFISSHQTGIPARGSHYIANNKKM
# B5: adiponectin (protein, UniProt Q15848 19-244, looked up)
# Adiponectin: ETTTQGPGVLLPLPKGACTGWMAGIPGHPGHNGAPGRDGRDGTPGEKGEKGDPGLIGPKGDIGETGVPGAEGPRGFPGIQGRKGEPGEGAYVYRSAFSVGLETYVTIPNMPIRFTKIFYNQQNHYDGSTGKFHCNIPGLYYFAYHITVYMKDVKVSLFKKDKAMLFTYDQYQENNVDQASGSVLLHLEVGDQVWLQVYGEGERNGLYADNDNDSTFTGFLLYHDTN
# notes: as for B1
# Key:
# [1] = species not stated
# [2] = for food intake (feeding) / weight gain: rats and/or mice
# [3] = for food intake: several species including humans
# [4] = human subjects; peripheral or intravenous administration
molecule,measurement,setting,value
"amylin (KCNTATCATQRLANFLVHSSNNFGAILSSTNVGSNTY; not fully specified (C-terminus, bridges); cysteine pairing not given here; UniProt P10997 34-70, looked up) [37 amino acid peptide released by the β cells of the pancreas]",body weight (weight loss / weight gain),[1],sustained weigh loss
same,food intake,[1],decreased food intake
prolactin-releasing peptide,food intake,animals,increase food intake
enterostatin,dietary fat preference,"[2]; mammals, demonstrated in rodent studies",reduce dietary fat preference
"galanin (GWTLNSAGYLLGPHAVGNHRSFSDKNGLTS; Galanin; UniProt P22466 33-62, looked up)",food intake (feeding),[2],stimulate food intake
"somatostatin (AGCKNFFWKTFTSC; ends and bridges not checked; cysteine pairing not given here; UniProt P61278 103-116, looked up)",food intake,animals,reduce food intake
bombesin [bombesin or bombesin-like peptide],food intake,[3],Feed suppression
PYY3-36,food intake (feeding),[2],inhibits food intake
same,weight gain,[2],reduced weigh gain
same,food intake,[4],significant food intake reduction
"ghrelin (GSSFLSPEHQRVQQRKESKKPPAKLQPR; ends and bridges not checked; also: octanoyl acylation; UniProt Q9UBU3 24-51, looked up) [28 amino acid acylated peptide produced mainly by the stomach]",body weight,[3]; rodents and persons,increase body weight
same,fat oxidation,[3]; rodents and persons,reducing fat oxidation
same,food intake,[3],stimulating food intake
"urocortin (DNPSLSIDLTFHLLRTLLELARTQSQRERAEQNRIIFDSV; ends and bridges not checked; UniProt P55089 83-122, looked up)",food intake (feeding),[2],reduces feeding
same,drinking,"[2]; rats, infused",reduces feeding and drinking
hypocretins/orexins,appetite,[2]; rats,stimulate appetite
same,food intake (feeding),[2],stimulate appetite and food intake
oxytocin,food intake,animals,increase food intake
leptin,body weight (weight loss / weight gain),[1],decrease food intake and body weigh
same,food intake,[1],decrease food intake
β casomorphin,food intake,animals with a high fat diet,increase food intake
same,food intake,animals with a low fat diet,decrease food intake
"Glucagon-like peptide-1 (7-36)-amide (HAEGTFTSDVSSYLEGQAAKEFIAWLVKGR-NH2; UniProt P01275 98-127, looked up) [GLP-1]",food intake,[4],reduce food intake
same,hunger / appetite,[4],suppress hunger
"corticotropin-releasing hormone (SEEPPISLDLTFHLLREVLEMARAEQLAQQAHSNRKLMEII; ends and bridges not checked; UniProt P06850 154-194, looked up)",food intake,animals,reduce food intake
"neuropeptide B (WYKPAAGHSSYSVGRAAGLLSGLRRSPYA; Neuropeptide B-29; UniProt Q8NG41 25-53, looked up) [ligand for orphan G protein-coupled receptors]",food intake,animals,stimulate food intake
C=CC1=C(C)c2cc3[nH]c(cc4nc(cc5[nH]c(cc1n2)c(C)c5CCC(=O)O)C(CCC(=O)O)=C4C)c(C)c3C=C [protoporphyrin],body weight (weight loss / weight gain),[1],decrease food intake and body weight
same,food intake,[1],decrease food intake
"CC[C@H](C)[C@H](NC(=O)[C@@H]1CCCN1C(=O)CNC(=O)[C@H](Cc1ccccc1)NC(=O)[C@H](CC(N)=O)NC(=O)[C@H](CC(N)=O)NC(=O)[C@H](CO)NC(=O)[C@H](CO)NC(=O)[C@H](Cc1c[nH]cn1)NC(=O)[C@@H](NC(=O)[C@H](CC(C)C)NC(=O)[C@H](Cc1ccccc1)NC(=O)[C@H](CC(N)=O)NC(=O)[C@H](C)NC(=O)[C@H](CC(C)C)NC(=O)[C@H](CCCNC(=N)N)NC(=O)[C@H](CCC(N)=O)NC(=O)[C@@H](NC(=O)[C@H](C)NC(=O)[C@@H]1CSSC[C@H](NC(=O)[C@@H](N)CCCCN)C(=O)N[C@@H](CC(N)=O)C(=O)N[C@@H]([C@@H](C)O)C(=O)N[C@@H](C)C(=O)N[C@@H]([C@@H](C)O)C(=O)N1)[C@@H](C)O)C(C)C)C(=O)N[C@@H](CC(C)C)C(=O)N1CCC[C@H]1C(=O)N1CCC[C@H]1C(=O)N[C@H](C(=O)N[C@@H](CC(N)=O)C(=O)N[C@H](C(=O)NCC(=O)N[C@@H](CO)C(=O)N[C@@H](CC(N)=O)C(=O)N[C@H](C(=O)N[C@@H](Cc1ccc(O)cc1)C(N)=O)[C@@H](C)O)C(C)C)[C@@H](C)O [pramlintide, reference compound]",body weight (weight loss / weight gain),[1],sustained weigh loss
same,food intake,[1],decreased food intake
neurotensin,food intake,[1],decrease food intake
"neuropeptide K (DADSSIEKQVALLKALYGHGQISHKRHKTDSFVGLM; ends and bridges not checked; UniProt P20366 72-107, looked up)",food intake,animals,inhibit food intake
"oxyntomodulin (HSQGTFTSDYSKYLDSRRAQDFVQWLMNTKRNRNNIA; Oxyntomodulin; UniProt P01275 53-89, looked up) [37 amino acid peptide, product of the proglucagon gene]",energy intake,[3]; administered to rodents and humans,reduce energy intake
"NPW: ligand for orphan G protein-coupled receptors (WYKHVASPRYHTVGRAAGLLMGL; Neuropeptide W-23; UniProt Q8N729 33-55, looked up)",food intake,animals,stimulate food intake
dynorphin,food intake,animals,stimulate food intake
beacon,food intake,animals,stimulate food intake
same,weight gain,animals,stimulate food intake and weight gain
neuropeptide Y,food intake,animals,stimulate food intake
"pancreatic peptide (APLEPVYPGDNATPEQMAQYAADLRRYINMLTRPRY; ends and bridges not checked; UniProt P01298 30-65, looked up) [PP, 36-amino acid peptide of the NPY family produced in the pancreatic islets]",food intake (feeding),[2],reduces food intake
same,weight gain,[2],reduces food intake and weight gain
same,food intake,[4],sustained decrease in appetite and food intake
same,hunger / appetite,[4],sustained decrease in appetite
O=C1N[C@@H](Cc2cnc[nH]2)C(=O)N2CCC[C@@H]12 [cyclo-his-pro],food intake,[1],reduce food intake
obestatin,jejunal contraction,[2]; rats,inhibited jejunal contraction
same,food intake (feeding),[2],suppressed food intake
same,weight gain,[2],decreased body weigh gain
"galanin-like peptide (APAHRGRGGWTLNSAGYLLGPVLHLPQMGDQDGKRETALEILDLWKAIDGLPYSHPPQPS; Galanin-like peptide; UniProt Q9UBC7 25-84, looked up)",food intake (feeding),[2],stimulate food intake
"motilin (FVPIFTYGELQRMQEKERNKGQ; Motilin; UniProt P12872 26-47, looked up) [polypeptide hormone secreted by Mo cells of the small intestine]",gastrointestinal motility,[1],increase the gastrointestinal motility
"growth hormone-releasing hormone (YADAIFTNSYRKVLGQLSARKLLQDIMSRQQGESNQERGARARL; ends and bridges not checked; UniProt P01286 32-75, looked up)",body weight (weight loss / weight gain),[1],stimulate food intake and weight gain
same,food intake,[1],stimulate food intake
"vasopressin (CYFQNCPRG; ends and bridges not checked; cysteine pairing not given here; UniProt P01185 20-28, looked up)",food intake,animals,reduce food intake
B1,food intake,animals,dose dependent reduction of food intake
B2,food intake,[3],dose-dependent inhibition of food intake
B3,food intake,animals,reduce food intake in a dose-dependent manner
B4,body weight (weight loss / weight gain),[1],cause weigh loss
B5,sensitivity of the hepatocyte to insulin,hepatocyte,increase the sensitivity of the hepatocyte to insulin
